Several values for one entry are separate records, joined by “and”; a condition that tells them apart may be missing. Equal values may be shown once. Each block holds one compound with its values, some of them ahead of it.
Tested on: NCI-H1876 complex spheroid growth, % test/control
Assay: Anticancer human tumor NCI-H1876 cell line growth inhibition [Asc];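 further: compound exposure lasted 7 days starting three days after seeding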;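 on viability, T/C: 100% = DMSO vehicle control wells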
Conditions: for viability, T/C: stronger effect = lower value
In short: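 Concentration series start at each agent's clinical Cmax, or at 10 microM when none is established, and drop in half-log steps; agents are applied alone or together to complex spheroids built with HUVEC and hMSC.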

IC50 (curve of first compound, second compound 0.0316 µM): > 10 µM
IC50 (curve of first compound, second compound 0.1 µM): > 10 µM
IC50 (curve of first compound, second compound 0.316 µM): > 10 µM
IC50 (curve of first compound, second compound 1 µM): > 10 µM
IC50 (curve of first compound, second compound 3.16 µM): > 10 µM
IC50 (curve of first compound, second compound 10 µM): > 10 µM
Structure (SMILES): C=CC(=O)N1CCN(c2nc(=O)n(-c3c(C)ccnc3C(C)C)c3nc(-c4c(O)cccc4F)c(F)cc23)C(C)C1 (centres undefined) + Cc1c(S(C)(=O)=O)c(-c2cc(F)cc(N3CCN(c4ccc(NS(=O)(=O)c5ccc(NC(CCN6CCC(C(=O)OCCCP(=O)(O)O)CC6)CSc6ccccc6)c(S(=O)(=O)C(F)(F)F)c5)cc4)CC3)c2)c(-c2ccc(Cl)cc2)n1C(C)C
viability, T/C (second compound 0.0316 µM, first compound 0.0316 µM): 91%
viability, T/C (second compound 0.0316 µM, first compound 0.1 µM): 89.5%
viability, T/C (second compound 0.0316 µM, first compound 0.316 µM): 107%
viability, T/C (second compound 0.0316 µM, first compound 1 µM): 95.2%
viability, T/C (second compound 0.0316 µM, first compound 3.16 µM): 103%
viability, T/C (second compound 0.0316 µM, first compound 10 µM): 109%
viability, T/C (second compound 0.1 µM, first compound 0.0316 µM): 85.7%
viability, T/C (second compound 0.1 µM, first compound 0.1 µM): 99.6%
viability, T/C (second compound 0.1 µM, first compound 0.316 µM): 101%
viability, T/C (second compound 0.1 µM, first compound 1 µM): 106%
viability, T/C (second compound 0.1 µM, first compound 3.16 µM): 108%
viability, T/C (second compound 0.1 µM, first compound 10 µM): 107%
viability, T/C (second compound 0.316 µM, first compound 0.0316 µM): 91.1%
viability, T/C (second compound 0.316 µM, first compound 0.1 µM): 114%
viability, T/C (second compound 0.316 µM, first compound 0.316 µM): 97.6%
viability, T/C (second compound 0.316 µM, first compound 1 µM): 103%
viability, T/C (second compound 0.316 µM, first compound 3.16 µM): 109%
viability, T/C (second compound 0.316 µM, first compound 10 µM): 104%
viability, T/C (second compound 1 µM, first compound 0.0316 µM): 105%
viability, T/C (second compound 1 µM, first compound 0.1 µM): 99.4%
viability, T/C (second compound 1 µM, first compound 0.316 µM): 111%
viability, T/C (second compound 1 µM, first compound 1 µM): 98.6%
viability, T/C (second compound 1 µM, first compound 3.16 µM): 110%
viability, T/C (second compound 1 µM, first compound 10 µM): 114%
viability, T/C (second compound 3.16 µM, first compound 0.0316 µM): 96.4%
viability, T/C (second compound 3.16 µM, first compound 0.1 µM): 95.3%
viability, T/C (second compound 3.16 µM, first compound 0.316 µM): 102%
viability, T/C (second compound 3.16 µM, first compound 1 µM): 97.8%
viability, T/C (second compound 3.16 µM, first compound 3.16 µM): 114%
viability, T/C (second compound 3.16 µM, first compound 10 µM): 96.7%
viability, T/C (second compound 10 µM, first compound 0.0316 µM): 99.2%
viability, T/C (second compound 10 µM, first compound 0.1 µM): 96.5%
viability, T/C (second compound 10 µM, first compound 0.316 µM): 99.6%
viability, T/C (second compound 10 µM, first compound 1 µM): 116%
viability, T/C (second compound 10 µM, first compound 3.16 µM): 106%
viability, T/C (second compound 10 µM, first compound 10 µM): 95.1%

IC50 (curve of compound): > 3 µM
Structure (SMILES): Cc1nc(N2CCC3(CC2)COC(C)C3N)c(CO)nc1Sc1ccnc(N)c1Cl (centres undefined)
viability, T/C (compound 0.00949 µM): 102% and 105% and 103%
viability, T/C (compound 0.03 µM): 92.8% and 87.9% and 89.1%
viability, T/C (compound 0.0949 µM): 103% and 84.3% and 92.5%
viability, T/C (compound 0.3 µM): 79.5% and 84.7% and 86%
viability, T/C (compound 0.949 µM): 78.4% and 84% and 94.5%
viability, T/C (compound 3 µM): 75.5% and 87.1% and 88.2%
